Data from patent US10723746B2, “Oxazolidinone-quinolone hybrid antibacterials for the parenteral treatment or prophylaxis of bacterial diseases” (MORPHOCHEM AKTIENGESELLSCHAFT FÜR KOMBINATORISCHE CHEMIE, priority 2013, dated 2020).
In brackets after ≈: the same amount, converted by molar mass. Structures can show the parent of a compound that is named as a salt. Where two headings read alike, the source gives them in different places.

Tests used:
[1] = First-in-Man study: iv. bolus or 20 min infusion of Compound 1; type: in vivo, humans; conditions: for AUC / Cmax: male, human, plasma, mean
Method: Volunteers were administered doses of up to 3.0 mg/kg body weight (BW) of Compound 1 given as iv. bolus injection of 2 min duration. Additionally, doses of 1.5 and 3.0 mg/kg BW of Compound 1 were administered as a short-term infusion of 20 min duration, resulting in infusion rates of 4.5 and 9.0 mg/(kg BW×h), respectively.

[2] = Solubility in aqueous media; type: physicochemical
[3] = cited from earlier work
Clostridium spp. = assay: Fecal microflora viable counts after i.v. infusions in healthy volunteers; type: in vivo, human
Method: (§1) Healthy human volunteers received i.v. infusions of Compound 1 at a dose of 6 mg/kg body weight over 12 hours for 5 consecutive days. […] Viable counts of lactobacilli were reduced from predose to Day 5 by 4.0 log 10 CFU/g. […] Likewise, enterococci were reduced from predose to Day 5 by 3.8 log 10 CFU/g on average.

bifidobacteria = assay: as above; type: in vivo, human; conditions: Compound 1 i.v. 6 mg/kg over 12 hours for 5 days
Method: as §1

lactobacilli = assay: as above; type: in vivo, human; conditions: Compound 1 i.v. 6 mg/kg over 12 hours for 5 days
Method: as §1

enterococci = assay: as above; type: in vivo, human; conditions: Compound 1 i.v. 6 mg/kg over 12 hours for 5 days
Method: as §1

[4] = test system: Enterococcus faecalis ATCC 29212; assay: MIC testing according to CLSI guidelines; type: cell-based; conditions: ATCC29212
Source text: (§2) MIC testing was done according to CLSI (formerly NCCLS) guidelines: Performance Standards for Antimicrobial Susceptibility Testing 11th Informational Supplement, Vol. 21 No 1, M100-S11, January 2001. NCCLS. Revised edition: 17th Informational Supplement, Vol. 27 No 1, […], January 2007.

[5] = test system: Enterococcus faecalis ATCC 51299; assay: MIC testing according to CLSI guidelines; type: cell-based; conditions: ATCC51299
Source text: as §2

[6] = test system: Staphylococcus aureus ATCC 43300; assay: MIC testing according to CLSI guidelines; type: cell-based; conditions: ATCC43300
Source text: as §2

[7] = test system: Staphylococcus aureus ATCC 33593; assay: MIC testing according to CLSI guidelines; type: cell-based; conditions: ATCC33593
Source text: as §2

[8] = test system: Staphylococcus aureus NRS 120; assay: MIC testing according to CLSI guidelines; type: cell-based; conditions: NRS120
Source text: as §2

[9] = test system: Staphylococcus aureus Visa Mu 50; assay: MIC testing according to CLSI guidelines; type: cell-based
Source text: as §2

[10] = test system: Staphylococcus aureus ATCC 29213; assay: MIC testing according to CLSI guidelines; type: cell-based; conditions: ATCC29213
Source text: as §2

[11] = test system: Streptococcus pneumoniae ATCC 33400; assay: MIC testing according to CLSI guidelines; type: cell-based; conditions: ATCC33400
Source text: as §2

Clostridium difficile = assay: Antimicrobial susceptibility of 114 C. difficile strains by agar dilution method; type: cell-based; conditions: for MIC50: Clostridioides difficile, read-out: MIC50
Method: One hundred fourteen Clostridium difficile strains were collected from 67 patients and analyzed for the presence of C. difficile toxin B by the cell cytotoxicity neutralization assay, genes for toxin A, toxin B, binary toxin and TcdC deletion by PCR. All strains were also PCR-ribotyped. The MICs of the isolates were determined against Compound 2 by the agar dilution method. All isolates were positive for toxin B. One hundred thirteen isolates were positive for toxin A and B genes. In addition, 13 isolates were positive for the binary toxin genes. Thirty-two different ribotypes were identified. No strain of ribotype 027 was found.
One hundred fourteen C. difficile strains were selected from patients (26 males and 41 females) with primary and/or recurrent CDI. The mean age of the patients was 74 years (age range 19-97 years). The strains (67 primary and 47 recurrent isolates) were identified by characteristic colony morphology, typical smell and Gram staining. Gas chromatography was used to detect volatile, short chain fatty acids production by the C. difficile strains for the final identification.
The antimicrobial susceptibility of the C. difficile strains was determined according to CLSI guidelines by the agar dilution method using Bacteroides fragilis ATCC 25285 and C. difficile ATCC 700057 as reference strains [CLSI. Methods for Antimicrobial Susceptibility Testing of Anaerobic Bacteria; Approved Standard-Eighth Edition. 2012].
MIC was defined as the lowest concentration of the drug that inhibited growth completely. MIC50/90 corresponds to the concentrations that inhibit the growth of 50% and 90%, of the strains tested, respectively.
PCR ribotype profiles from clinical isolates were compared to those profiles which define the database by maximum matching with Pearson correlation. IBM SPSS Statistics 22 (Armonk, N.Y., USA) software was used to calculate the percentiles 50 and 90 of the MIC results. Descriptive statistics were used to summarize the results.

Gram-negative species = assay: Fecal microflora after i.v. infusions in healthy volunteers; type: in vivo, human; conditions: Compound 1 i.v. 6 mg/kg over 12 hours for 5 days
Method: as §1

[12] = in vivo; cited from earlier work
[13] = test system: anaerobes, in particular Gram-positive anaerobes; conditions: cited from earlier work
C difficile [14] = conditions: cited from earlier work
C difficile [15] = conditions: cited from earlier work; remark: listed apart in the source
[16] = test system: Clostridium difficile infections (CDI); conditions: oral administration; cited from earlier work
[17] = intravenous, Drug after 3.0 mg/kg BW Compound 1, 20 min infusion, 9.0 mg/(kg BW·h)
[18] = Drug after 3.0 mg/kg BW Compound 1 iv. bolus
[19] = 114 C. difficile strains, agar dilution

Structure (SMILES): CC(=O)NC[C@H]1CN(c2ccc(OCC3(OP(=O)(O)O)CCN(c4cc5c(cc4F)c(=O)c(C(=O)O)cn5C4CC4)CC3)c(F)c2)C(=O)O1 [Compound 1, sodium salt of 7-(4-{4-[(5S)-5-(Acetylamino-methyl)-2-oxo-oxazolidin-3-yl]-2-fluoro-phenoxymethyl}-4-phosphonooxy-piperidin-1-yl)-1-cyclopropyl-6-fluoro-4-oxo-1,4-dihydro-quinoline-3-carboxylic acid]
- AUC of the Prodrug, 20 min infusion compared to bolus administration ([1]; 3.0 mg/kg BW): lower AUC
- Conversion of the Prodrug to the Drug ([1]; humans, all doses applied): very rapid conversion
- Solubility in aqueous media [2]: very good solubility

Structure (SMILES): CN[C@H](CC(C)C)C(=O)N[C@H]1C(=O)N[C@@H](CC(N)=O)C(=O)N[C@H]2C(=O)N[C@H]3C(=O)N[C@H](C(=O)N[C@H](C(=O)O)c4cc(O)cc(O)c4-c4cc3ccc4O)[C@H](O)c3ccc(c(Cl)c3)Oc3cc2cc(c3O[C@@H]2O[C@H](CO)[C@@H](O)[C@H](O)[C@H]2O[C@H]2C[C@](C)(N)[C@H](O)[C@H](C)O2)Oc2ccc(cc2Cl)[C@H]1O [vancomycin]
- Toxicity associated with long term treatment [3]: nephrotoxicity

Structure (SMILES): CC(=O)NC[C@H]1CN(c2ccc(OCC3(O)CCN(c4cc5c(cc4F)c(=O)c(C(=O)O)cn5C4CC4)CC3)c(F)c2)C(=O)O1 [Compound 2, 7-(4-{4-[(5S)-5-(Acetylamino-methyl)-2-oxo-oxazolidin-3-yl]-2-fluoro-phenoxymethyl}-4-hydroxy-piperidin-1-yl)-1-cyclopropyl-6-fluoro-4-oxo-1,4-dihydro-quinoline-3-carboxylic acid]
- Reduction of viable counts of Clostridium spp. from predose to Day 5 (Clostridium spp.; Compound 1 i.v. 6 mg/kg over 12 hours for 5 days): 3.0 log 10 CFU/g
- Viable counts of Clostridium spp. until Day 3 postdose (Clostridium spp.; all except one of the volunteers): reduced below the limit of detection
- Reduction of viable counts of bifidobacteria from predose to Day 5 (bifidobacteria): 7.9 log 10 CFU/g
- Reduction of viable counts of lactobacilli from predose to Day 5 (lactobacilli): 4.0 log 10 CFU/g
- Reduction of enterococci from predose to Day 5, on average (enterococci): 3.8 log 10 CFU/g
- MIC [4]: 0.25 µg/mL (≈ 0.399 µM)
- MIC [5]: 0.25 µg/mL (≈ 0.399 µM)
- MIC [6]: 0.5 µg/mL (≈ 0.798 µM)
- MIC [7]: 0.25 µg/mL (≈ 0.399 µM)
- MIC [8]: 2 µg/mL (≈ 3.19 µM)
- MIC [9]: 0.5 µg/mL (≈ 0.798 µM)
- MIC [10]: 0.5 µg/mL (≈ 0.798 µM)
- MIC [11]: 0.03 µg/mL (≈ 0.0479 µM)
- AUC [1, 17]: 3230 ng·h/mL
- Cmax [1, 17]: 3180 ng/mL
- AUC [1, 18]: 2170 ng·h/mL
- Cmax [1, 18]: 2450 ng/mL
- MIC range (Clostridium difficile; 114 C. difficile isolates, agar dilution): 0.008-0.5 mg/1
- MIC90 (Clostridium difficile; [19]): 0.064 mg/1
- MIC range (Clostridium difficile; [19]): 0.008 to 0.5 mg/L
- MIC50 (Clostridium difficile): 0.064 µg/mL (≈ 0.102 µM)
- MIC50 (Clostridium difficile; [19]): 0.032 µg/mL (≈ 0.0511 µM)
- Susceptibility of the C. difficile isolates (Clostridium difficile; all 114 isolates): sensitive
- Effect of exposure of the fecal flora on Gram-negative species (Gram-negative species): did not affect

Structure (SMILES): Cc1ncc([N+](=O)[O-])n1CCO [metronidazole]
- Toxicity associated with long term treatment [3]: neurotoxicity

Structure (SMILES): O=C(O)c1cn(C2CC2)c2cc(N3CCNCC3)c(F)cc2c1=O [Ciprofloxacin]
- Fecal concentrations [12]: high
- Activity in vitro against anaerobes [13]: neither active in vitro

Structure (SMILES): CC(=O)NC[C@H]1CN(c2ccc(N3CCOCC3)c(F)c2)C(=O)O1 [linezolid]
- Activity in an in vitro human gut model (C difficile [14]): inactive
- Fecal concentrations [12]: negligibly low
- Fraction of the dose excreted via the feces [12]: 0.2 % of the dose
- Activity in vitro against C difficile (C difficile [15]): active

Structure (SMILES): CCc1c(Cl)c(O)c(Cl)c(O)c1C(=O)O[C@H]1[C@H](O)[C@H](OC)[C@H](OC/C2=C\C=C\C[C@H](O)/C(C)=C/[C@H](CC)[C@@H](O[C@@H]3OC(C)(C)[C@@H](OC(=O)C(C)C)[C@H](O)[C@@H]3O)/C(C)=C/C(C)=C/C[C@@H]([C@@H](C)O)OC2=O)O[C@@H]1C [fidaxomicin]
- Frequency of recurrence of CDI [16]: approximately 13%
